In brackets after ≈: the same amount, converted by molar mass. Read-outs that look alike come from different tables or passages of the source. Residues, ends and D or L forms follow the SMILES beside them. No end group written: not given here.
Key:
S. aureus CCARM 3089 = test: microbe, parasite or virus in culture; format: cell-based, Staphylococcus aureus
From the text: (§1) Escherichia coli (KCTC 1682), Salmonella typhimurium (KCTC 1926), Pseudomonas aeruginosa (KCTC 1637), Staphylococcus aureus (KCTC 1621), Bacillus subtilis (KCTC 1918), and Listeria monocytogenes (KCTC 3710) were obtained from the Korean Collection for Type Cultures (KCTC). Drug-resistant E. coli strains (CCARM 1229 and CCARM 1238), S. typhimurium strains (CCARM 8007, CCARM 8009, and CCARM 8013), and S. aureus strains (CCARM 3089, CCARM 3090, CCARM 3108, CCARM 3114, and CCARM 3126) were from the Culture Collection of Antibiotic-Resistant Microbes (CCARM) at Seoul Women’s University, Korea.
(§2) The antibacterial activities of the peptides against Gram-negative, Gram-positive and antibiotic-resistant bacterial strains were evaluated using the microbroth dilution method (Park et al. [2003]). Aliquots of culture medium containing bacterial suspensions in mid-logarithmic phase at a concentration of 2 × 10^5 colony forming units (CFU)/ml were added to each well of a multiwell plate containing peptide solution serially diluted 2× in 10 mM sodium phosphate buffer (pH 7.2) or phosphate-buffered saline (PBS, 1.5 mM KH2PO4, 2.7 mM KCl, 8.1 mM Na2HPO4, 150 mM NaCl, pH 7.2). Growth inhibition was evaluated by measuring the absorbance at 620 nm using a Versa-Max microplate Elisa Reader (Molecular Devices Co., Sunnyvale, CA, USA) after 24 h of incubation at 37° C. […] All MIC measurements were the average of 3–4 independent experiments.

S. aureus CCARM 3114 = test: microbe, parasite or virus in culture; format: cell-based, Staphylococcus aureus
From the text: as §1, §2

S. aureus CCARM 3108 = test: microbe, parasite or virus in culture; format: cell-based, Staphylococcus aureus
From the text: as §1, §2

S. aureus CCARM 3090 = test: microbe, parasite or virus in culture; format: cell-based, Staphylococcus aureus
From the text: as §1, §2

[1] = test system: Escherichia coli (KCTC 1682); test: microbe, parasite or virus in culture; format: cell-based; details: pH 7.2
From the text: as §1, §2

[2] = test system: Staphylococcus aureus (KCTC 1621); test: microbe, parasite or virus in culture; format: cell-based; details: pH 7.2
From the text: as §1, §2

human red blood cells = test: Human red blood cell (hRBC) hemolysis; format: cell-based; details: for MHC (minimal hemolytic concentration): minimal peptide concentration that produces 10 % hemolysis, hRBCs in PBS; for Hemolysis: 200 μM peptide in PBS pH 7.2, 4 % v/v hRBCs, 60 min at 37° C, absorbance 414 nm, 100 % = 0.1 % Triton X-100, triplicate
Protocol: Hemolytic activities of the peptides were assessed using heparinized hRBCs collected from healthy donors. Fresh hRBCs were washed three times by centrifugation at 800×g for 10 min in PBS (pH 7.2) and then resuspended in PBS. The peptides were then dissolved in PBS and added to 100 μl of stock hRBCs suspended in PBS (final RBC concentration, 4 % v/v), after which the samples were incubated with gentle agitation for 60 min at 37° C before centrifugation for 10 min at 800×g. Absorbance of the supernatants was recorded at 414 nm. In addition, control samples for zero hemolysis and 100 % hemolysis were incubated with PBS (A blank) or 0.1 % Triton X-100 (A triton), respectively. Melittin was used as a reference hemolytic peptide. Percent hemolysis was calculated according to the following equation: Each measurement was conducted in triplicate (Kim et al. [2011]).

[3] = test system: S. typhimurium CCARM 8013; test: microbe, parasite or virus in culture; format: cell-based, Salmonella typhimurium
From the text: as §1, §2

[4] = test system: S. typhimurium CCARM 8009; test: microbe, parasite or virus in culture; format: cell-based, Salmonella typhimurium
From the text: as §1, §2

[5] = test system: S. typhimurium CCARM 8007; test: microbe, parasite or virus in culture; format: cell-based, Salmonella typhimurium
From the text: as §1, §2

[6] = test system: Listeria monocytogenes (KCTC 3710); format: cell-based; details: KCTC 3710, 24 h, pH 7.2
From the text: as §1, §2

[7] = test system: Bacillus subtilis (KCTC 1918); format: cell-based; details: KCTC 1918, 24 h, pH 7.2
From the text: as §1, §2

[8] = test system: Pseudomonas aeruginosa (KCTC 1637); format: cell-based; details: KCTC 1637, 24 h, pH 7.2
From the text: as §1, §2

E. coli CCARM 1238 = test: microbe, parasite or virus in culture; format: cell-based, Escherichia coli
From the text: as §1, §2

E. coli CCARM 1229 = test: microbe, parasite or virus in culture; format: cell-based, Escherichia coli
From the text: as §1, §2

[9] = test system: Salmonella typhimurium (KCTC 1926); test: microbe, parasite or virus in culture; format: cell-based; details: pH 7.2
From the text: as §1, §2

S. aureus CCARM 3126 = test: microbe, parasite or virus in culture
From the text: as §1
The antibacterial activities of the peptides against Gram-negative, Gram-positive and antibiotic-resistant bacterial strains were evaluated using the microbroth dilution method (Park et al. [2003]). Aliquots of culture medium containing bacterial suspensions in mid-logarithmic phase at a concentration of 2 × 10^5 colony forming units (CFU)/ml were added to each well of a multiwell plate containing peptide solution serially diluted 2× in 10 mM sodium phosphate buffer (pH 7.2) or phosphate-buffered saline (PBS, 1.5 mM KH2PO4, 2.7 mM KCl, 8.1 mM Na2HPO4, 150 mM NaCl, pH 7.2). Growth inhibition was evaluated by measuring the absorbance at 620 nm using a Versa-Max microplate Elisa Reader (Molecular Devices Co., Sunnyvale, CA, USA) after 24 h of incubation at 37° C.

[10] = Salmonella enterica, drug-resistant strain, 10 mM sodium phosphate buffer, pH 7.2, 2 × 10^5 CFU/ml, 24 h at 37° C, average of 3–4 independent experiments, read-out: MIC
[11] = drug-resistant strain, PBS, pH 7.2 (number in parentheses), 2 × 10^5 CFU/ml, 24 h at 37° C, average of 3–4 independent experiments
[12] = drug-resistant strain, 10 mM sodium phosphate buffer, pH 7.2, 2 × 10^5 CFU/ml, 24 h at 37° C, average of 3–4 independent experiments
[13] = drug-resistant strain, 10 mM sodium phosphate buffer, pH 7.2, 2 × 10^5 CFU/ml, 24 h at 37° C, average of 3–4 independent experiments, read-out: MIC

NCCCC[C@H](NC(=O)[C@H](Cc1c[nH]c2ccccc12)NC(=O)[C@@H](N)CCCCN)C(=O)N[C@@H](Cc1c[nH]c2ccccc12)C(N)=O [(KW)2, KWKW-NH2] (H-KWKW-NH2)
MIC (S. aureus CCARM 3089; CCARM 3089, 24 h, pH 7.2): >200 (>200) μM
MIC (S. aureus CCARM 3114; CCARM 3114, 24 h, pH 7.2): >200 (>200) μM
MIC (S. aureus CCARM 3108; CCARM 3108, 24 h, pH 7.2): >200 (>200) μM
MIC (S. aureus CCARM 3090; CCARM 3090, 24 h, pH 7.2): >200 (>200) μM
MIC ([1]; KCTC 1682, 24 h): >200 (>200) μM
MIC ([2]; KCTC 1621, 24 h): >200 (>200) μM
MHC (minimal hemolytic concentration) (human red blood cells): 550 µM
MIC ([3]; CCARM 8013, 24 h, pH 7.2): >200 (>200) μM
MIC ([4]; CCARM 8009, 24 h, pH 7.2): >200 (>200) μM
MIC ([5]; CCARM 8007, 24 h, pH 7.2): >200 (>200) μM
MIC [6]: 200 (>200) μM
MIC [7]: >200 (>200) μM
MIC [8]: >200 (>200) μM
MIC (E. coli CCARM 1238; CCARM 1238, 24 h, pH 7.2): >200 (>200) μM
MIC (E. coli CCARM 1229; CCARM 1229, 24 h, pH 7.2): >200 (>200) μM

CC1(C)S[C@@H]2[C@H](NC(=O)[C@H](N)c3ccccc3)C(=O)N2[C@H]1C(=O)O [Ampicillin, reference compound]
MIC ([1]; Escherichia coli, KCTC1682, 24 h): 50 µM (≈ 17.5 µg/mL)
MIC ([9]; Salmonella enterica, 10 mM sodium phosphate buffer, 2 × 10^5 CFU/ml, 24 h at 37° C, average of 3–4 independent experiments, read-out: MIC): 25 µM (≈ 8.74 µg/mL)
MIC [3, 10]: > 200 µM
MIC [3, 11]: >200 (>200) μM
MIC [4, 10]: > 200 µM
MIC [4, 11]: >200 (>200) μM
MIC [5, 10]: > 200 µM
MIC [5, 11]: >200 (>200) μM
MIC (E. coli CCARM 1238; Escherichia coli, CCARM1238, drug-resistant strain, 10 mM sodium phosphate buffer, pH 7.2, 2 × 10^5 CFU/ml, 24 h at 37° C, average of 3–4 independent experiments, read-out: MIC): > 200 µM
MIC (E. coli CCARM 1238; [11]): >200 (>200) μM
MIC (E. coli CCARM 1229; Escherichia coli, CCARM1229, drug-resistant strain, 10 mM sodium phosphate buffer, pH 7.2, 2 × 10^5 CFU/ml, 24 h at 37° C, average of 3–4 independent experiments, read-out: MIC): > 200 µM
MIC (E. coli CCARM 1229; [11]): >200 (>200) μM

Cc1onc(-c2ccccc2)c1C(=O)N[C@@H]1C(=O)N2[C@@H]1SC(C)(C)[C@@H]2C(=O)O [Oxacillin, reference compound]
MIC (S. aureus CCARM 3089; Staphylococcus aureus, CCARM3089, drug-resistant strain, 10 mM sodium phosphate buffer, pH 7.2, 2 × 10^5 CFU/ml, 24 h at 37° C, average of 3–4 independent experiments, read-out: MIC): > 200 µM
MIC (S. aureus CCARM 3089; [11]): >200 (>200) μM
MIC (S. aureus CCARM 3114; Staphylococcus aureus, CCARM3114, drug-resistant strain, 10 mM sodium phosphate buffer, pH 7.2, 2 × 10^5 CFU/ml, 24 h at 37° C, average of 3–4 independent experiments, read-out: MIC): > 200 µM
MIC (S. aureus CCARM 3114; [11]): >200 (>200) μM
MIC (S. aureus CCARM 3108; Staphylococcus aureus, CCARM3108, drug-resistant strain, 10 mM sodium phosphate buffer, pH 7.2, 2 × 10^5 CFU/ml, 24 h at 37° C, average of 3–4 independent experiments, read-out: MIC): > 200 µM
MIC (S. aureus CCARM 3108; [11]): >200 (>200) μM
MIC (S. aureus CCARM 3090; Staphylococcus aureus, CCARM3090, drug-resistant strain, 10 mM sodium phosphate buffer, pH 7.2, 2 × 10^5 CFU/ml, 24 h at 37° C, average of 3–4 independent experiments, read-out: MIC): > 200 µM
MIC (S. aureus CCARM 3090; [11]): >200 (>200) μM
MIC ([2]; Staphylococcus aureus, KCTC1621, 10 mM sodium phosphate buffer, 2 × 10^5 CFU/ml, 24 h at 37° C, average of 3–4 independent experiments, read-out: MIC): 12.5 µM (≈ 5.02 µg/mL)
MIC (S. aureus CCARM 3126; Staphylococcus aureus, CCARM3126, 24 h, pH 7.2): > 200 µM
MIC (S. aureus CCARM 3126; [11]): >200 (>200) μM

KWKWKW-NH2 [(KW)3, KWKWKW-NH2]
MHC (minimal hemolytic concentration) (human red blood cells): 350 µM
MIC (S. aureus CCARM 3126; [12]): 50 µM
MIC (S. aureus CCARM 3126; [11]): 200 µM

KWKWKWKW-NH2 [(KW)4, KWKWKWKW-NH2]
MIC (S. aureus CCARM 3089; [12]): 12.5 (12.5) μM
MIC (S. aureus CCARM 3089; [11]): 12.5 (12.5) μM
MIC (S. aureus CCARM 3114; [12]): 12.5 (12.5) μM
MIC (S. aureus CCARM 3114; [11]): 12.5 (12.5) μM
MIC (S. aureus CCARM 3108; [12]): 12.5 (12.5) μM
MIC (S. aureus CCARM 3108; [11]): 12.5 (12.5) μM
MIC (S. aureus CCARM 3090; [12]): 12.5 (12.5) μM
MIC (S. aureus CCARM 3090; [11]): 12.5 (12.5) μM
MIC ([9]; KCTC 1926, 24 h): 1.56 (1.56) μM
Hemolysis (human red blood cells): 8%
MHC (minimal hemolytic concentration) (human red blood cells): 210 µM
MIC [5, 12]: 12.5 (12.5) μM
MIC [5, 11]: 12.5 (12.5) μM
MIC [6]: 3.12 (3.12) μM
MIC [8]: 3.12 (3.12) μM
MIC (E. coli CCARM 1238; [12]): 12.5 (12.5) μM
MIC (E. coli CCARM 1238; [11]): 12.5 (12.5) μM
MIC (S. aureus CCARM 3126; [12]): 12.5 (12.5) μM
MIC (S. aureus CCARM 3126; [11]): 12.5 (12.5) μM

KWKWKWKWKW-NH2 [(KW)5, KWKWKWKWKW-NH2]
MIC (S. aureus CCARM 3114; [13]): 25 µM
MIC (S. aureus CCARM 3090; [13]): 25 µM
MIC ([2]; KCTC 1621, 24 h, read-out: MIC): 25 µM
Hemolysis (human red blood cells): 71%
MHC (minimal hemolytic concentration) (human red blood cells): 50 µM
MIC [3, 13]: 25 µM
MIC [4, 13]: 25 µM
MIC [5, 13]: 25 µM
MIC [6]: 3.12 (3.12) μM
MIC [7]: 12.5 (12.5) μM
MIC (S. aureus CCARM 3126; [12]): 25 µM

— article PMC3549253, “Effect of repetitive lysine–tryptophan motifs on the bactericidal activity of antimicrobial peptides” (Amino Acids, 2012)
